Laboratory results taken from ChEMBL document CHEMBL1201862, “PubChem BioAssay data set” (2004).
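Compound exposure: 48 hours, 5 concentrations, 96-well plates. GI50 = concentration required for 50% inhibition of growth.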 Calls of active or inactive are those of the source. Rule as the data show it: active = GI50 up to about 1.1 µM and inactive = higher.

Key:
Assay in all cases: NCI tumour cell line growth inhibition, 48 h
786-0 = system: 786-0
A498 = system: A498
DU-145 = system: DU-145
HT-29 = system: HT-29
KM12 = system: KM12
MDA-N = system: MDA-N
MOLT-4 = system: MOLT-4
NCI-H226 = system: NCI-H226
OVCAR-5 = system: OVCAR-5
SF-268 = system: SF-268
SK-MEL-5 = system: SK-MEL-5
SK-OV-3 = system: SK-OV-3
SNB-19 = system: SNB-19
TK-10 = system: TK-10
UACC-257 = system: UACC-257
UACC-62 = system: UACC-62
CAKI-1 = system: CAKI-1
HL-60 = system: HL-60
RXF 393 = system: RXF 393
BT-549 = system: BT-549

| Structure (SMILES) | GI50 (786-0) | GI50 (A498) | GI50 (DU-145) | GI50 (HT-29) | GI50 (KM12) | GI50 (MDA-N) | GI50 (MOLT-4) | GI50 (NCI-H226) | GI50 (OVCAR-5) | GI50 (SF-268) | GI50 (SK-MEL-5) | GI50 (SK-OV-3) | GI50 (SNB-19) | GI50 (TK-10) | GI50 (UACC-257) | GI50 (UACC-62) | GI50 (CAKI-1) | GI50 (HL-60) | GI50 (RXF 393) | GI50 (BT-549) |
| --- | --- | --- | --- | --- | --- | --- | --- | --- | --- | --- | --- | --- | --- | --- | --- | --- | --- | --- | --- | --- |
| COc1cc2oc(=O)cc(C)c2c(OC)c1OC | > 100 µM (inactive) | 30.8 µM (inactive) | > 100 µM (inactive) | > 100 µM (inactive) | > 100 µM (inactive) | > 100 µM (inactive) | > 100 µM (inactive) | > 100 µM (inactive) | > 100 µM (inactive) | > 100 µM (inactive) | > 100 µM (inactive) | > 100 µM (inactive) | > 100 µM (inactive) | > 100 µM (inactive) | > 100 µM (inactive) | > 100 µM (inactive) | – | – | – | – |
| COC(=O)C1C(=O)N(C)C(=O)N2CCCC12 (stereo not drawn) | > 100 µM (inactive) | > 100 µM (inactive) | > 100 µM (inactive) | > 100 µM (inactive) | > 100 µM (inactive) | > 100 µM (inactive) | > 100 µM (inactive) | > 100 µM (inactive) | > 100 µM (inactive) | > 100 µM (inactive) | > 100 µM (inactive) | > 100 µM (inactive) | > 100 µM (inactive) | > 100 µM (inactive) | > 100 µM (inactive) | > 100 µM (inactive) | > 100 µM (inactive) | > 100 µM (inactive) | 71.8 µM (inactive) | – |
| CCCCCCCCCCCCCCCCCCNc1ccn(C2OC(COP(=O)(O)OCCCCCCCCCCCCCCCC)C(O)C2O)c(=O)n1 (stereo not drawn) | > 100 µM (inactive) | > 100 µM (inactive) | > 100 µM (inactive) | > 100 µM (inactive) | > 100 µM (inactive) | – | > 100 µM (inactive) | > 100 µM (inactive) | > 100 µM (inactive) | > 100 µM (inactive) | – | > 100 µM (inactive) | > 100 µM (inactive) | > 100 µM (inactive) | > 100 µM (inactive) | > 100 µM (inactive) | > 100 µM (inactive) | 58.3 µM (inactive) | > 100 µM (inactive) | – |
| COc1ncnc2c(NC3OC(CO)C(O)C3O)ncnc12 (stereo not drawn) | 0.537 µM (active) | 0.411 µM (active) | 0.407 µM (active) | 0.0685 µM (active) | 0.458 µM (active) | 0.274 µM (active) | 0.0471 µM (active) | 0.335 µM (active) | 0.569 µM (active) | 0.506 µM (active) | 1.19 µM (inactive) | 0.525 µM (active) | 1.16 µM (inactive) | 0.298 µM (active) | 1.6 µM (inactive) | 0.299 µM (active) | 0.267 µM (active) | 0.0414 µM (active) | 0.794 µM (active) | – |
| CS(=O)(=O)N1CC(CCl)c2ccc(NCCN)cc21 (stereo not drawn) | 18.7 µM (inactive) | 69 µM (inactive) | > 100 µM (inactive) | > 100 µM (inactive) | > 100 µM (inactive) | > 100 µM (inactive) | > 100 µM (inactive) | > 100 µM (inactive) | > 100 µM (inactive) | 39.1 µM (inactive) | > 100 µM (inactive) | 22.1 µM (inactive) | 39 µM (inactive) | > 100 µM (inactive) | > 100 µM (inactive) | – | 96.2 µM (inactive) | > 100 µM (inactive) | 35.4 µM (inactive) | – |
| CC(=O)/C=C1/C(=O)C(CC(C)C)=C1CC(C)C | > 100 µM (inactive) | > 100 µM (inactive) | > 100 µM (inactive) | > 100 µM (inactive) | > 100 µM (inactive) | > 100 µM (inactive) | 92.3 µM (inactive) | > 100 µM (inactive) | > 100 µM (inactive) | > 100 µM (inactive) | > 100 µM (inactive) | > 100 µM (inactive) | > 100 µM (inactive) | > 100 µM (inactive) | > 100 µM (inactive) | > 100 µM (inactive) | > 100 µM (inactive) | > 100 µM (inactive) | > 100 µM (inactive) | – |
| Cc1cn(CC2=NCC(O)CN2)c(=O)[nH]c1=O (stereo not drawn) | > 100 µM (inactive) | > 100 µM (inactive) | > 100 µM (inactive) | > 100 µM (inactive) | > 100 µM (inactive) | > 100 µM (inactive) | > 100 µM (inactive) | > 100 µM (inactive) | > 100 µM (inactive) | > 100 µM (inactive) | > 100 µM (inactive) | > 100 µM (inactive) | > 100 µM (inactive) | > 100 µM (inactive) | > 100 µM (inactive) | > 100 µM (inactive) | > 100 µM (inactive) | > 100 µM (inactive) | > 100 µM (inactive) | – |
| N#Cc1nc(C2=C(Cl)c3ccccc3OC2)[nH]c1C#N | 32.1 µM (inactive) | 24.3 µM (inactive) | – | 19.1 µM (inactive) | 26.1 µM (inactive) | – | 12.9 µM (inactive) | – | 38.5 µM (inactive) | 32.6 µM (inactive) | 19.1 µM (inactive) | 36.7 µM (inactive) | 29.8 µM (inactive) | 33.6 µM (inactive) | – | 22.9 µM (inactive) | 58.6 µM (inactive) | 22.7 µM (inactive) | 13.9 µM (inactive) | 18.9 µM (inactive) |
| CC(C)Oc1c(O)c2c3c(oc(=O)n3C=CC2c2ccccc2)c1OC(C)C (stereo not drawn) | 36.1 µM (inactive) | – | 34 µM (inactive) | 24.2 µM (inactive) | 21.5 µM (inactive) | 36.3 µM (inactive) | 31 µM (inactive) | 27.6 µM (inactive) | 34.4 µM (inactive) | – | 32.3 µM (inactive) | > 100 µM (inactive) | 20.3 µM (inactive) | 22.1 µM (inactive) | 25.1 µM (inactive) | – | 29.2 µM (inactive) | 27 µM (inactive) | – | – |
| CC(C)CC(=O)CC(C)[C@]1(CCCOCc2ccccc2)C(=O)N2CCC3(C[C@@]24CCC[C@H]41)OCCO3 (stereo partly drawn) | > 10 µM (inactive) | > 10 µM (inactive) | – | – | > 10 µM (inactive) | > 10 µM (inactive) | > 10 µM (inactive) | > 10 µM (inactive) | > 10 µM (inactive) | > 10 µM (inactive) | > 10 µM (inactive) | > 10 µM (inactive) | > 10 µM (inactive) | > 10 µM (inactive) | – | – | > 10 µM (inactive) | > 10 µM (inactive) | – | – |
| CN(C)c1cccc2c1C(=O)C=CC21c2ccc(N(C)C)c3c(N(C)C)ccc(c23)C(c2ccccc2)C1c1ccccc1 (stereo not drawn) | 9.44 µM (inactive) | 6.68 µM (inactive) | 42.5 µM (inactive) | 14.9 µM (inactive) | 14.3 µM (inactive) | 16.4 µM (inactive) | 0.592 µM (active) | 12.7 µM (inactive) | 28.1 µM (inactive) | 12.9 µM (inactive) | 14.2 µM (inactive) | 11.4 µM (inactive) | 16.3 µM (inactive) | 12 µM (inactive) | 12.6 µM (inactive) | 20.1 µM (inactive) | 1.64 µM (inactive) | 3.34 µM (inactive) | 13 µM (inactive) | – |
| Cc1ccc2c(c1)C(=O)C1(C2)Cc2cccc(C)c2C1=O (stereo not drawn) | > 100 µM (inactive) | > 100 µM (inactive) | > 100 µM (inactive) | > 100 µM (inactive) | > 100 µM (inactive) | > 100 µM (inactive) | > 100 µM (inactive) | > 100 µM (inactive) | > 100 µM (inactive) | > 100 µM (inactive) | > 100 µM (inactive) | > 100 µM (inactive) | 35.2 µM (inactive) | > 100 µM (inactive) | > 100 µM (inactive) | 77.3 µM (inactive) | 0.0418 µM (active) | > 100 µM (inactive) | > 100 µM (inactive) | – |
| O=C(Nc1ccc(S(=O)(=O)/N=c2\ncccn2C(=O)C(C(F)(F)F)C(F)(F)F)cc1)C(C(F)(F)F)C(F)(F)F | > 100 µM (inactive) | > 100 µM (inactive) | > 100 µM (inactive) | > 100 µM (inactive) | > 100 µM (inactive) | > 100 µM (inactive) | > 100 µM (inactive) | > 100 µM (inactive) | > 100 µM (inactive) | > 100 µM (inactive) | > 100 µM (inactive) | > 100 µM (inactive) | > 100 µM (inactive) | > 100 µM (inactive) | > 100 µM (inactive) | > 100 µM (inactive) | 0.0368 µM (active) | > 100 µM (inactive) | > 100 µM (inactive) | – |
| COc1cc2nc(-c3cccs3)nc(Nc3ccccc3C(=O)NN)c2cc1OC | 95.7 µM (inactive) | > 100 µM (inactive) | > 100 µM (inactive) | > 100 µM (inactive) | > 100 µM (inactive) | – | > 100 µM (inactive) | > 100 µM (inactive) | > 100 µM (inactive) | > 100 µM (inactive) | > 100 µM (inactive) | > 100 µM (inactive) | > 100 µM (inactive) | > 100 µM (inactive) | > 100 µM (inactive) | > 100 µM (inactive) | > 100 µM (inactive) | 44.9 µM (inactive) | – | > 100 µM (inactive) |
| Cc1nc(=O)c2cc(CN(C)c3ccc(C(=O)N[C@@H](CCC(=O)O)C(=O)O)s3)ccc2[nH]1 [RALTITREXED] | 0.0438 µM (active) | – | 0.273 µM (active) | > 100 µM (inactive) | > 100 µM (inactive) | – | 0.0977 µM (active) | > 100 µM (inactive) | > 100 µM (inactive) | 12.8 µM (inactive) | – | > 100 µM (inactive) | > 100 µM (inactive) | > 100 µM (inactive) | > 100 µM (inactive) | 0.193 µM (active) | > 100 µM (inactive) | 5.92 µM (inactive) | – | 71.4 µM (inactive) |
